Values quoted from earlier work, collected in US8772507B2, “Imidazole-benzamide anti-cancer agents” (Cytokinetics, Inc., priority 2004, dated 2014).
Where two headings read alike, the source gives them in different places.

Tested on: A549 cells

| GI50 | GI50 (no unit printed at this place) | Compound |
| --- | --- | --- |
| 1000 nM | 1000 nM | O=c1[nH]cc(F)c(=O)[nH]1 [5-fluorouracil] |
| 63 nM |  | COc1cccc2c1C(=O)c1c(O)c3c(c(O)c1C2=O)C[C@@](O)(C(=O)CO)C[C@@H]3O[C@H]1C[C@H](N)[C@H](O)[C@H](C)O1 [doxorubicin] |
| 500000 nM |  | NC(=O)NO [hydroxyurea] |
| 4 nM |  | CC(=O)O[C@H]1C(=O)[C@@]2(C)[C@H]([C@H](OC(=O)c3ccccc3)[C@]3(O)C[C@H](OC(=O)[C@H](O)[C@@H](NC(=O)c4ccccc4)c4ccccc4)C(C)=C1C3(C)C)[C@]1(OC(C)=O)CO[C@@H]1C[C@@H]2O [paclitaxel] |
